Read-outs that look alike come from different tables or passages of the source.
Assays:
[1] = system: Magnaporthe grisea (Pyricularia oryzae—PYRIOR); experiment: microbe, parasite or virus in culture; type: cell-based; conditions: Pyricularia oryzae, read-out: PYRIOR in vitro Growth Inhibition
Ustilago maydis (USTIMA) = experiment: microbe, parasite or virus in culture; type: cell-based; conditions: Mycosarcoma maydis, read-out: USTIMA in vitro Growth Inhibition
[2] = system: Puccinia recondita—PUCCRT; experiment: Brown Rust of Wheat, in vivo whole plant, 24 Hour Protectant; conditions: for PUCCRT in vivo 1 Day Protectant: % control of fungal infection vs untreated plants; for pest or weed control at 100 ppm: Puccinia, control of fungal infection vs untreated plants, read-out: PUCCRT in vivo 1 Day Protectant
[3] = system: Phytophthora infestans—PHYTIN; experiment: whole plant or invertebrate; type: in vivo; conditions: Phytophthora, in Solanum lycopersicum, 24 h, read-out: PHYTIN in vivo 1 Day Protectant
[4] = system: Mycosphaerella graminicola (Septoria tritici—SEPTTR); experiment: In vitro fungal growth inhibition, Mycosphaerella graminicola (SEPTTR); type: cell-based; conditions: Zymoseptoria tritici, read-out: SEPTTR in vitro Growth Inhibition
Erysiphe graminis—ERYSGT = experiment: Powdery Mildew of Wheat, in vivo whole plant, 24 Hour Protectant; conditions: Erysiphe, read-out: ERYSGT in vivo 1 Day Protectant
[5] = system: Phytophthora infestans (PHYTIN); experiment: microbe, parasite or virus in culture; type: cell-based; conditions: Phytophthora infestans, read-out: PHYTIN in vitro Growth Inhibition
[6] = system: Leptosphaeria nodorum—LEPTNO; experiment: Glume Blotch of Wheat, in vivo whole plant, 24 Hour Protectant; conditions: for LEPTNO in vivo 1 Day Protectant: % control of fungal infection vs untreated plants; for pest or weed control at 100 ppm: Leptosphaeria, control of fungal infection vs untreated plants, read-out: LEPTNO in vivo 1 Day Protectant
[7] = system: Stagonospora nodorum (Leptosphaeria nodorum—LEPTNO); experiment: In vitro fungal growth inhibition, Stagonospora nodorum (LEPTNO); type: cell-based; conditions: Leptosphaeria, read-out: LEPTNO in vitro Growth Inhibition
Septoria tritici—SEPTTR = experiment: Leaf Blotch of Wheat, in vivo whole plant, 24 Hour Protectant; conditions: for pest or weed control at 100 ppm: Zymoseptoria tritici, 24 h, read-out: SEPTTR in vivo 1 Day Protectant
[8] = system: Rhizoctonia solani (RHIZSO); experiment: microbe, parasite or virus in culture; type: cell-based; conditions: Rhizoctonia solani, read-out: RHIZSO in vitro Growth Inhibition
[9] = 100 ppm spray, wheat, 24 hour protectant
[10] = 100 ppm spray, wheat, 24 hour protectant, % control of fungal infection vs untreated plants
[11] = 100 ppm spray, wheat, 24 hour protectant, control of fungal infection vs untreated plants
[12] = wheat plants sprayed at 100 ppm, inoculated after 24 hours
[13] = wheat plants sprayed at 100 ppm, inoculated after 24 hours, control of fungal infection vs untreated plants
[14] = 100 ppm spray, 24 hour protectant, wheat
[15] = 100 ppm spray, 24 hour protectant, wheat, control of fungal infection vs untreated plants

Structure (SMILES)	inhibition at 25 ppm [1]	inhibition at 25 ppm (Ustilago maydis (USTIMA))	pest or weed control at 100 ppm [3]	inhibition at 25 ppm ([4]; 25 ppm in growth medium)	inhibition at 25 ppm [5]	inhibition at 25 ppm ([7]; 25 ppm in growth medium)	inhibition at 25 ppm [8]	pest or weed control at 100 ppm [2, 12]	inhibition at 25 ppm ([4]; 25 ppm in the growth medium)	pest or weed control at 100 ppm (Erysiphe graminis—ERYSGT; [13])	pest or weed control at 100 ppm [6, 12]	inhibition at 25 ppm ([7]; 25 ppm in the growth medium)	also measured
COc1ccnc(C(=O)N[C@H]2COC(=O)[C@H](Cc3ccccc3)[C@@H](OC(=O)C(C)C)[C@H](C)OC2=O)c1OC(=O)c1ccco1 [Compound 673]	< 80%	< 80%	< 25%	< 80%	< 80%	< 80%	< 80%	–	–	–	–	–	PUCCRT in vivo 1 Day Protectant [2, 9]: + +; pest or weed control at 100 ppm (Erysiphe graminis—ERYSGT; [10]): < 25%; LEPTNO in vivo 1 Day Protectant [6, 9]: + +; SEPTTR in vivo 1 Day Protectant (Septoria tritici—SEPTTR; [10]): + +
COc1ccnc(C(=O)Nc2ccc(Oc3ccc(C(F)(F)F)cc3)cc2)c1O [Compound 425, 3-HYDROXY-4-METHOXY-N-(4-(4-TRIFLUOROMETHYLPHENOXY)PHENYL)-PYRIDINE-2-CARBOXAMIDE]	> 80%	< 80%	25 to 74%	> 80%	< 80%	> 80%	> 80%	–	–	–	–	–	pest or weed control at 100 ppm [2, 9]: 25 to 74%; pest or weed control at 100 ppm (Erysiphe graminis—ERYSGT; [11]): < 25%; pest or weed control at 100 ppm [6, 9]: < 25%; pest or weed control at 100 ppm (Septoria tritici—SEPTTR; [11]): 25 to 74%
COC(=O)C(COC(=O)CC(C)OC(=O)C(C)C)NC(=O)c1nccc(OC)c1OC(C)=O (centres unmarked) [Compound 586]	< 80%	< 80%	< 25%	–	< 80%	–	< 80%	25 to 74%	< 80%	< 25%	25 to 74%	< 80%	pest or weed control at 100 ppm (Septoria tritici—SEPTTR; [13]): 25 to 74%
O=C(NC(Cc1ccccc1)c1ccccc1)c1nc(Br)ccc1O (centres unmarked) [Compound 491]	< 80%	< 80%	< 25%	–	> 80%	–	< 80%	< 25%	< 80%	< 25%	< 25%	< 80%	pest or weed control at 100 ppm (Septoria tritici—SEPTTR; [13]): < 25%
COc1ccnc(C(=O)NC2CC(C)(C)C=CC=C2C)c1OC(C)=O (centres unmarked) [Compound 579]	< 80%	< 80%	< 25%	–	< 80%	–	< 80%	< 25%	< 80%	< 25%	< 25%	< 80%	SEPTTR in vivo 1 Day Protectant (Septoria tritici—SEPTTR; [13]): + +
COc1ccnc(C(=O)N[C@H]2COC(=O)[C@H](Cc3ccccc3)[C@@H](OC(=O)C(C)C)[C@H](C)OC2=O)c1OC(=O)OCCBr [Compound 692]	> 80%	< 80%	< 25%	> 80%	< 80%	> 80%	< 80%	–	–	–	–	–	PUCCRT in vivo 1 Day Protectant [2, 9]: + +; pest or weed control at 100 ppm (Erysiphe graminis—ERYSGT; [10]): < 25%; LEPTNO in vivo 1 Day Protectant [6, 9]: + +; SEPTTR in vivo 1 Day Protectant (Septoria tritici—SEPTTR; [10]): + +
COc1ccnc(C(=O)NC2CC(C(F)(F)F)CC(C(F)(F)F)C2)c1O (centres unmarked) [Compound 256]	< 80%	< 80%	< 25%	< 80%	< 80%	< 80%	< 80%	–	–	–	–	–	pest or weed control at 100 ppm [2, 14]: 25 to 74%; pest or weed control at 100 ppm (Erysiphe graminis—ERYSGT; [15]): 25 to 74%; pest or weed control at 100 ppm [6, 14]: 25 to 74%; pest or weed control at 100 ppm (Septoria tritici—SEPTTR; [15]): 25 to 74%

Reference: patent US6706740B2, “Fungicidal heterocyclic aromatic amides and their compositions, methods of use and preparation” (Dow AgroSciences LLC, priority 1999, dated 2004)
